According to publication PMC6207715, “Determination of extended substrate specificity of the MALT1 as a strategy for the design of potent substrates and activity-based probes” (Scientific Reports, 2018):
Like-named read-outs stand apart in the source and are kept apart here.

Columns and labels:
caspase -3 = conditions: cited from earlier work
Text: (§1) Z-VRPR-FMK, which was originally designed as a plant metacaspase inhibitor[3], is the most frequently used MALT1 inhibitor and binds covalently to the MALT1 active site. Mepazine is another inhibitor of MALT1, but functions in a noncovalent and reversible manner, limiting its usefulness in studying the enzyme. […] Hachmann et al. described the first tetrapeptidic MALT1-activity-based probe, which was characterized by medium potency (kobs/I = 9, 300 M^−1s^−1)[2 ...

caspase -8 = conditions: cited from earlier work
Text: as §1

MALT1 [1] = target: T1, MALT1 (Homo sapiens, UniProt Q9UDY8); conditions: cited from earlier work
T1 sequence (Q9UDY8 1-824): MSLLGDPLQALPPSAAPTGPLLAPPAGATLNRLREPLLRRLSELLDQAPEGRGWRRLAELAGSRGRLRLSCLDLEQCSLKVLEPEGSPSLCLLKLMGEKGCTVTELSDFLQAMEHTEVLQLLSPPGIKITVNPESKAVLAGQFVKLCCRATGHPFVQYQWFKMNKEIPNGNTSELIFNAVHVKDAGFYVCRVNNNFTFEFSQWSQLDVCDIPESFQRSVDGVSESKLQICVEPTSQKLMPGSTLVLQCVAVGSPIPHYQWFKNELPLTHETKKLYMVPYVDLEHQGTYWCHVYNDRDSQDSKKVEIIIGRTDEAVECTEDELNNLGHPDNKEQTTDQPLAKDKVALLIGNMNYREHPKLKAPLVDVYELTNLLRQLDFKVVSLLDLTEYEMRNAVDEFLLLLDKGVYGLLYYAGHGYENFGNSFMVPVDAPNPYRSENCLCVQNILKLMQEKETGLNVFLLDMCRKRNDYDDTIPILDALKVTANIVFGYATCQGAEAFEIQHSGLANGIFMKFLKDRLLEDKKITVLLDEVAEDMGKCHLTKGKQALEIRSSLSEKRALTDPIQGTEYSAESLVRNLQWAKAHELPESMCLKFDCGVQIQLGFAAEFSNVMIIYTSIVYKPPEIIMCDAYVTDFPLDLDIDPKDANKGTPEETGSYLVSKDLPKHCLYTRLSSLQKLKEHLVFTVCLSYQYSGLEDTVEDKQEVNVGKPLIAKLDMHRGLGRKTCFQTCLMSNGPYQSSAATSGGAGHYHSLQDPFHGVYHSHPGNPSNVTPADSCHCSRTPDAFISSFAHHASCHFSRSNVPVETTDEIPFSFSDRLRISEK
Text: as §1

caspase -9 = conditions: cited from earlier work
Text: as §1

MALT1 [2] = target: T1, MALT1; assay: Inhibition kinetics of activity-based probe (kobs/I); format: biochemical
[3] = system: MALT1 in RAW 264.7 cell lysates; assay: Labeling of active MALT1 in RAW 264.7 cell lysates; format: biochemical; conditions: RAW 264.7 lysates; probe 8 to 500 nM; 30 minutes, 37 °C; gel scan 700 nm
Protocol: Figure 3 Probe to detect active MALT1. Panel a. Structure of the MALT1 probe (PKG105). Panel b. RAW 264.7 cell lysates were incubated with PKG105 at various concentrations. As a control, lysates were pretreated with mepazine, followed by incubation with probe. Lysates that were not treated with mepazine were also used. SDS-PAGE was performed at 165 V. Fluorescence was scanned using the 700 nm channel (LI-COR). Gels are representative of at least two replicates. TEXT PRINTED IN THE PICTURE: (a) PKG105: kobs/I = 92,000 M^-1s^-1
Twenty-five microliters of RAW 264.7 cell lysates (from 5 * 10^6 cells/mL) were incubated with PKG105 at concentrations ranging from 8 to 500 nM. As controls, cells that were not incubated with probe or cells that were pretreated with 1 µL of 10 mM mepazine were treated with 500 nM PKG105. The lysates were incubated with the probe for 30 minutes at 37 °C, followed by denaturation in 3 × SDS-loading buffer for 5 minutes at 95 °C. SDS-PAGE was performed under reducing conditions for 37 minutes at 165 V. The fluorescence signal in the gel was measured using a Li-Cor (Odyssey®) at a wavelength of 700 nm.

MALT1^FL = target: T2, MALT1^FL (Homo sapiens, UniProt Q9UDY8); assay: MALT1 labeling with PKG105, SDS-PAGE fluorescence scan; format: biochemical; conditions: 100 nM enzyme; probe 500, 250, 125 nM; 30 minutes, 37 °C; gel scan 700 nm
T2 construct: treating full-length MALT1 (MALT1^FL), the MALT1 catalytic domain (MALT1^CD)
T2 sequence (Q9UDY8 1-824): T1 sequence (Q9UDY8 1-824)
Protocol: (§2) MALT1^FL, MALT1^CD or MALT1^C/A at 100 nM were incubated with PKG105 at three different concentrations: 500 nM, 250 nM and 125 nM for 30 minutes at 37 °C. As a control, MALT1^FL without the probe was incubated in the assay buffer. Samples were denatured in 3 × SDS-loading buffer for 5 minutes at 95 °C. SDS-PAGE was performed under reducing conditions for 37 minutes at 165 V. The fluorescence signal in the gel was measured using a Li-Cor (Odyssey®) instrument at a wavelength of 700 nm.

MALT1^CD = target: T3, MALT1^CD (Homo sapiens, UniProt Q9UDY8); assay: as above; format: biochemical; conditions: 100 nM enzyme; probe 500, 250, 125 nM; 30 minutes, 37 °C; gel scan 700 nm
T3 construct: the MALT1 catalytic domain (MALT1^CD)
T3 sequence (Q9UDY8 348-562 limits assumed): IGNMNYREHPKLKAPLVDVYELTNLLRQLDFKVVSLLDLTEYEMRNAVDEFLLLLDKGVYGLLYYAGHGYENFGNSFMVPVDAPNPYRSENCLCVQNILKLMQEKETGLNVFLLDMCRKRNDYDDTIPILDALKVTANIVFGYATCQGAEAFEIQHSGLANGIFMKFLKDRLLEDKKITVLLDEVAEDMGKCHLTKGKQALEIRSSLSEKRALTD
Protocol: as §2

MALT1^C/A = assay: as above; format: biochemical; conditions: 100 nM enzyme; probe 500, 250, 125 nM; 30 minutes, 37 °C; gel scan 700 nm
Protocol: as §2

| Compound | activity toward caspase -3 (caspase -3) | activity toward caspase -8 (caspase -8) | IC50 (MALT1 [1]) | activity toward caspase -9 (caspase -9) | kobs/I (MALT1 [2]) | kobs/I (MALT1 [2]; printed in Figure 3a) | kobs/I relative to the best MALT1 inhibitor in the literature (MALT1 [2]; times higher than 9,300 s^−1M^−1) | detection of active MALT1 in cell lysates by probe [3] | labeling of MALT1^FL by probe (MALT1^FL) | labeling of MALT1^CD by probe (MALT1^CD) | labeling of MALT1^C/A catalytic mutant by probe (MALT1^C/A) |
| --- | --- | --- | --- | --- | --- | --- | --- | --- | --- | --- | --- |
| COCCOc1nc(-c2ccc(Cl)c(Cl)c2)n(-c2ccc(NC(=O)CCl)cc2)n1 [MI-2] | exhibits activity | exhibits activity | 5.84 µM | exhibits activity |  |  |  |  |  |  |  |
| Cy5-Phe(guan)-Leu-Val-Pro-Arg-AOMK [PKG105] |  |  |  |  | 92,000 s^−1M^−1 | 92,000 M^-1s^-1 | approximately 10 times | detected active MALT1 | detected enzyme activity | detected enzyme activity | no labeling was observed |
